Laboratory results as given in patent US20230144436A1, “MUSCLE TARGETING COMPLEXES AND USES THEREOF FOR TREATING MYOTONIC DYSTROPHY” (Dyne Therapeutics, Inc., priority 2020, published 2023).

Test system: DMPK
Assay: DMPK knockdown by transfected antisense oligonucleotides in DM1 C15 myotubes at 0.5 nM and 50 nM
Type: cell-based
Details: 72 hours; for Normalized DMPK Remaining: relative to vehicle control = 1.00
How it was run: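 Seven-day-differentiated DM1 C15 myotubes transfected (Lipofectamine MessengerMax) with each oligonucleotide at 0.5 nM or 50 nM final, biological triplicates. After 72 h, DMPK mRNA quantified by qPCR, expressed relative to vehicle-only transfection set to 1.00.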

## 391 (UCACCAACACGUCCCUCUCC; chemistry not given here) [compound 391]
0.5 nM oligonucleotide
  Percent DMPK Reduction: 47.12%
  Normalized DMPK Remaining: 0.53
50 nM oligonucleotide
  Percent DMPK Reduction: 84.09%
  Normalized DMPK Remaining: 0.16

## 392 (UGCCUGCAGCAACUCCAUCC; chemistry not given here) [compound 392]
0.5 nM oligonucleotide
  Percent DMPK Reduction: 13.99%
  Normalized DMPK Remaining: 0.86
50 nM oligonucleotide
  Percent DMPK Reduction: 49.75%
  Normalized DMPK Remaining: 0.50

## 393 (UUGGCCGGCGUGGGCCACCA; chemistry not given here) [compound 393]
0.5 nM oligonucleotide
  Percent DMPK Reduction: -3.19%
  Normalized DMPK Remaining: 1.03
50 nM oligonucleotide
  Percent DMPK Reduction: 44.37%
  Normalized DMPK Remaining: 0.56

## 394 (GAGCCUCUGCCUCGCGUAGU; chemistry not given here) [compound 394]
0.5 nM oligonucleotide
  Percent DMPK Reduction: 18.77%
  Normalized DMPK Remaining: 0.81
50 nM oligonucleotide
  Percent DMPK Reduction: 77.78%
  Normalized DMPK Remaining: 0.22

## 395 (AAGGGCGUCUGCCCAUAGAA; chemistry not given here) [compound 395]
0.5 nM oligonucleotide
  Percent DMPK Reduction: 13.15%
  Normalized DMPK Remaining: 0.87
50 nM oligonucleotide
  Percent DMPK Reduction: 34.56%
  Normalized DMPK Remaining: 0.65

## 396 (ACAGACAAUAAAUACCGAGG; chemistry not given here) [compound 396]
0.5 nM oligonucleotide
  Percent DMPK Reduction: -3.95%
  Normalized DMPK Remaining: 1.04
50 nM oligonucleotide
  Percent DMPK Reduction: 74.02%
  Normalized DMPK Remaining: 0.26

## 397 (GGACAGACAAUAAAUACCGA; chemistry not given here) [compound 397]
0.5 nM oligonucleotide
  Percent DMPK Reduction: 22.57%
  Normalized DMPK Remaining: 0.77
50 nM oligonucleotide
  Percent DMPK Reduction: 52.51%
  Normalized DMPK Remaining: 0.47

## 398 (ACGUGUGCCUCUAGGUCCCG; chemistry not given here) [compound 398]
0.5 nM oligonucleotide
  Percent DMPK Reduction: 16.47%
  Normalized DMPK Remaining: 0.84
50 nM oligonucleotide
  Percent DMPK Reduction: 77.73%
  Normalized DMPK Remaining: 0.22

## 399 (GGCACGAGACAGAACAACGG; chemistry not given here) [compound 399]
0.5 nM oligonucleotide
  Percent DMPK Reduction: 16.10%
  Normalized DMPK Remaining: 0.84
50 nM oligonucleotide
  Percent DMPK Reduction: 68.01%
  Normalized DMPK Remaining: 0.32

## 400 (UGACCAGGUACAGGUAGUUC; chemistry not given here) [compound 400]
0.5 nM oligonucleotide
  Percent DMPK Reduction: 22.00%
  Normalized DMPK Remaining: 0.78
50 nM oligonucleotide
  Percent DMPK Reduction: 63.73%
  Normalized DMPK Remaining: 0.36

## 401 (CUCUGCCGGGUGAGCACCUC; chemistry not given here) [compound 401]
0.5 nM oligonucleotide
  Percent DMPK Reduction: 25.25%
  Normalized DMPK Remaining: 0.75
50 nM oligonucleotide
  Percent DMPK Reduction: 74.36%
  Normalized DMPK Remaining: 0.26

## 402 (GACAAUCUCCGCCAGGUAGA; chemistry not given here) [compound 402]
0.5 nM oligonucleotide
  Percent DMPK Reduction: 23.70%
  Normalized DMPK Remaining: 0.76
50 nM oligonucleotide
  Percent DMPK Reduction: 49.82%
  Normalized DMPK Remaining: 0.50

## 403 (UCUCCGCCAGGUAGAAGCGC; chemistry not given here) [compound 403]
0.5 nM oligonucleotide
  Percent DMPK Reduction: 19.59%
  Normalized DMPK Remaining: 0.80
50 nM oligonucleotide
  Percent DMPK Reduction: 66.52%
  Normalized DMPK Remaining: 0.33

## 404 (CUCUGCCUCGCGUAGUUGAC; chemistry not given here) [compound 404]
0.5 nM oligonucleotide
  Percent DMPK Reduction: 16.61%
  Normalized DMPK Remaining: 0.83
50 nM oligonucleotide
  Percent DMPK Reduction: 91.21%
  Normalized DMPK Remaining: 0.09

## 405 (CUUUGGGCAGAUGGAGGGCC; chemistry not given here) [compound 405]
0.5 nM oligonucleotide
  Percent DMPK Reduction: 28.06%
  Normalized DMPK Remaining: 0.72
50 nM oligonucleotide
  Percent DMPK Reduction: 67.50%
  Normalized DMPK Remaining: 0.33

## 406 (ACAGGUAGUUCUCAUCCUGG; chemistry not given here) [compound 406]
0.5 nM oligonucleotide
  Percent DMPK Reduction: 20.51%
  Normalized DMPK Remaining: 0.79
50 nM oligonucleotide
  Percent DMPK Reduction: 85.36%
  Normalized DMPK Remaining: 0.15

## 407 (CCAAACUUGCTCAGCAGUGU; chemistry not given here) [compound 407]
0.5 nM oligonucleotide
  Percent DMPK Reduction: 23.64%
  Normalized DMPK Remaining: 0.76
50 nM oligonucleotide
  Percent DMPK Reduction: 57.70%
  Normalized DMPK Remaining: 0.42

## 408 (UCGGGUUUGAUGUCCCUGUG; chemistry not given here) [compound 408]
0.5 nM oligonucleotide
  Percent DMPK Reduction: 22.49%
  Normalized DMPK Remaining: 0.78
50 nM oligonucleotide
  Percent DMPK Reduction: 57.16%
  Normalized DMPK Remaining: 0.43

## 409 (GGCUUGCUGCCUUCCCAGGC; chemistry not given here) [compound 409]
0.5 nM oligonucleotide
  Percent DMPK Reduction: -6.32%
  Normalized DMPK Remaining: 1.06
50 nM oligonucleotide
  Percent DMPK Reduction: 48.15%
  Normalized DMPK Remaining: 0.52

## 410 (UACAGGUAGUUCUCAUCCUG; chemistry not given here) [compound 410]
0.5 nM oligonucleotide
  Percent DMPK Reduction: 19.83%
  Normalized DMPK Remaining: 0.80
50 nM oligonucleotide
  Percent DMPK Reduction: 72.51%
  Normalized DMPK Remaining: 0.27

## 411 (UUGCCCAUCCACGUCAGGGC; chemistry not given here) [compound 411]
0.5 nM oligonucleotide
  Percent DMPK Reduction: 22.23%
  Normalized DMPK Remaining: 0.78
50 nM oligonucleotide
  Percent DMPK Reduction: 67.15%
  Normalized DMPK Remaining: 0.33

## 412 (AGGUACAGGUAGUUCUCAUC; chemistry not given here) [compound 412]
0.5 nM oligonucleotide
  Percent DMPK Reduction: 18.68%
  Normalized DMPK Remaining: 0.81
50 nM oligonucleotide
  Percent DMPK Reduction: 58.92%
  Normalized DMPK Remaining: 0.41

## 413 (GACAGACAAUAAAUACCGAG; chemistry not given here) [compound 413]
0.5 nM oligonucleotide
  Percent DMPK Reduction: 18.26%
  Normalized DMPK Remaining: 0.82
50 nM oligonucleotide
  Percent DMPK Reduction: 38.07%
  Normalized DMPK Remaining: 0.62

## 414 (UAGAACAUUUCAUAGGCGAA; chemistry not given here) [compound 414]
0.5 nM oligonucleotide
  Percent DMPK Reduction: 20.23%
  Normalized DMPK Remaining: 0.80
50 nM oligonucleotide
  Percent DMPK Reduction: 43.67%
  Normalized DMPK Remaining: 0.56

## 415 (AGGGCCUUUUAUUCGCGAGG; chemistry not given here) [compound 415]
0.5 nM oligonucleotide
  Percent DMPK Reduction: 13.63%
  Normalized DMPK Remaining: 0.86
50 nM oligonucleotide
  Percent DMPK Reduction: 66.43%
  Normalized DMPK Remaining: 0.34

## 416 (GCCUCGCGUAGUUGACUGGC; chemistry not given here) [compound 416]
0.5 nM oligonucleotide
  Percent DMPK Reduction: 12.98%
  Normalized DMPK Remaining: 0.87
50 nM oligonucleotide
  Percent DMPK Reduction: 91.10%
  Normalized DMPK Remaining: 0.09

## 417 (CCAGCAGGAUGUUGUCGGGU; chemistry not given here) [compound 417]
0.5 nM oligonucleotide
  Percent DMPK Reduction: 40.29%
  Normalized DMPK Remaining: 0.60
50 nM oligonucleotide
  Percent DMPK Reduction: 89.59%
  Normalized DMPK Remaining: 0.10

## 418 (GUAGUUGACUGGCGAAGUUC; chemistry not given here) [compound 418]
0.5 nM oligonucleotide
  Percent DMPK Reduction: 7.50%
  Normalized DMPK Remaining: 0.93
50 nM oligonucleotide
  Percent DMPK Reduction: 45.33%
  Normalized DMPK Remaining: 0.55

## 419 (UGCGGAUGGCCUCCAUCUCC; chemistry not given here) [compound 419]
0.5 nM oligonucleotide
  Percent DMPK Reduction: 40.15%
  Normalized DMPK Remaining: 0.60
50 nM oligonucleotide
  Percent DMPK Reduction: 84.43%
  Normalized DMPK Remaining: 0.16

## 420 (ACAAUCUCCGCCAGGUAGAA; chemistry not given here) [compound 420]
0.5 nM oligonucleotide
  Percent DMPK Reduction: 19.09%
  Normalized DMPK Remaining: 0.81
50 nM oligonucleotide
  Percent DMPK Reduction: 49.75%
  Normalized DMPK Remaining: 0.50

## 421 (GCGAAUACACCCAGCGCCCA; chemistry not given here) [compound 421]
0.5 nM oligonucleotide
  Percent DMPK Reduction: 6.94%
  Normalized DMPK Remaining: 0.93
50 nM oligonucleotide
  Percent DMPK Reduction: 69.72%
  Normalized DMPK Remaining: 0.30

## 422 (GUAGUUCUCAUCCUGGAAGG; chemistry not given here) [compound 422]
0.5 nM oligonucleotide
  Percent DMPK Reduction: 7.43%
  Normalized DMPK Remaining: 0.93
50 nM oligonucleotide
  Percent DMPK Reduction: 55.09%
  Normalized DMPK Remaining: 0.45

## 423 (GGCUCAGGCUCUGCCGGGUG; chemistry not given here) [compound 423]
0.5 nM oligonucleotide
  Percent DMPK Reduction: 7.38%
  Normalized DMPK Remaining: 0.93
50 nM oligonucleotide
  Percent DMPK Reduction: 65.82%
  Normalized DMPK Remaining: 0.34

## 424 (CCAUUCACCAACACGUCCCU; chemistry not given here) [compound 424]
0.5 nM oligonucleotide
  Percent DMPK Reduction: 39.26%
  Normalized DMPK Remaining: 0.61
50 nM oligonucleotide
  Percent DMPK Reduction: 86.83%
  Normalized DMPK Remaining: 0.13

## 425 (ACCAGGUACAGGUAGUUCUC; chemistry not given here) [compound 425]
0.5 nM oligonucleotide
  Percent DMPK Reduction: 16.09%
  Normalized DMPK Remaining: 0.84
50 nM oligonucleotide
  Percent DMPK Reduction: 76.96%
  Normalized DMPK Remaining: 0.23

## 426 (CTGCAGUUUGCCCAUCCACG; chemistry not given here) [compound 426]
0.5 nM oligonucleotide
  Percent DMPK Reduction: -10.69%
  Normalized DMPK Remaining: 1.11
50 nM oligonucleotide
  Percent DMPK Reduction: 60.08%
  Normalized DMPK Remaining: 0.40

## 427 (UUGUUCAUGAUCUUCAUGGC; chemistry not given here) [compound 427]
0.5 nM oligonucleotide
  Percent DMPK Reduction: 14.13%
  Normalized DMPK Remaining: 0.86
50 nM oligonucleotide
  Percent DMPK Reduction: 45.23%
  Normalized DMPK Remaining: 0.55

## 428 (UUGAUGUCCCUGUGCACGU; chemistry not given here) [compound 428]
0.5 nM oligonucleotide
  Percent DMPK Reduction: 6.92%
  Normalized DMPK Remaining: 0.93
50 nM oligonucleotide
  Percent DMPK Reduction: 43.07%
  Normalized DMPK Remaining: 0.57

## 429 (GCGGUCCAGCAGGAUGUUGU; chemistry not given here) [compound 429]
0.5 nM oligonucleotide
  Percent DMPK Reduction: 38.84%
  Normalized DMPK Remaining: 0.61
50 nM oligonucleotide
  Percent DMPK Reduction: 83.64%
  Normalized DMPK Remaining: 0.16

## 430 (GUCUAUGGCCAUGACAAUCU; chemistry not given here) [compound 430]
0.5 nM oligonucleotide
  Percent DMPK Reduction: -11.00%
  Normalized DMPK Remaining: 1.11
50 nM oligonucleotide
  Percent DMPK Reduction: 73.11%
  Normalized DMPK Remaining: 0.27
